Source: patent publication US20100331363A1, “TREATMENT OF MITOCHONDRIAL DISORDERS USING A FARNESYL TRANSFERASE INHIBITOR” (Link Medicine Corporation, priority 2008, published 2010)
Entries after “also recorded” stand apart in the source; their conditions may differ.

Tests used:
human α-synuclein = assay: Masliah D-line α-synuclein transgenic mouse, α-synuclein immunoreactivity and ELISA; type: in vivo
Protocol: Animals and treatments: Male and female human WT alpha-synuclein over-expressing transgenic mice^32 at 6 months of age were given vehicle (10% beta-cyclodextrin) or LNK-754-TS (0.09, 0.9 and 9 mg/kg) per oral gavage twice daily for 3 months or animals at 7 months of age were given vehicle (2.5% beta-cyclodextrin) or LNK-754-TS (2 mg/kg) once every three days for 3 months. Male and female TAU transgenic mice expressing TAU441 bearing the missense mutations V337M^50 and R406W under the control of the murine Thy-1 promoter with a CB6xC57BL/6 background were 5 months old at the time when the oral treatment for three months with LNK-754-TS (0.9 and 0.09 mg/kg) as well as vehicle (2.5% beta-cyclodextrin) was started. Female human APP/PS1 (APP (London V7171)/PS1(A246E)) over-expressing transgenic mice were treated with LNK-754-TS (0.9 mg/kg) or vehicle (2.5% beta-cyclodextrin) for 2 months or 12 days.
Immunohistochemistry and quantification of stained cells: For evaluation of α-synuclein immunoreactivity (IR), 5 sagittal cryo-cut sections (10 μm slice thickness) from five different layers were used for counting of IR cells in the cortex and hippocampus. Brain sections were stained with a monoclonal human α-synuclein specific antibody (Alexis®; Cat#804-258-L001; dilution 1:5), followed by a secondary Ab Cy 2-Goat Anti-Rat (Jackson ImmunoResearch®; dilution 1:200). IR positive cells were quantified using specialized image analysis software (Image Pro Plus, version 4.5.1.29). For Tau transgenic animals, 5 μm thick coronal paraffin sections were stained with the monoclonal mouse anti-human TAU-antibodies (AT180—1:100; HT7—1:500) and visualized using an anti-mouse Cy3 secondary antibody (1:500, Jackson Laboratories®). Images were evaluated with ImageProPlus (version 6.2) image analysis software. For APP/PS1 transgenic animals sagittal hemisections (40 μm) were collected and processed for Aβ immunohistochemistry using an 6E10 antibody, Thioflavin-S staining. Primary antibodies were detected by the ABC method.
ELISA quantification of α-Synuclein in the α-Synuclein transgenic animals: Brain homogenate was centrifuged and the supernatant saved as fraction F1. The pellet was washed then resuspended and saved as fraction F2. Plates (Nunc, 464718) were coated with SYN-1 (1:1000, BD Transduction Labs, 610787). Monomeric recombinant α-synuclein was included as an internal standard. Biotinylated antibody FL-140 (1:300, Santa Cruz Biotechnology, sc-10717-B) and ExtrAvidin-Alkaline phosphatase (3:5000, Sigma, E2636) was added followed by pNPP substrate solution (Sigma, N1891). Raw absorbance (405 nm) was then normalized to the total protein concentration of each sample. In the APP/PS1 transgenic animal, brains were homogenized and the supernatant, Faction 1, was separated from the pellet. The pellets were further processed with addition of NP40 and Triton X-100. The supernatant was separated from the pellet as the insoluble membrane, Fraction 2, and was dissolved in 8M Guanidine. To quantify the amount of human Aβ-40 and Aβ-42, ELISA kits were used (The Genetics Company, Zurich, Switzerland).
In FIG. 2 is shown efficacy data for LNK-754-TS in the Masliah D-line transgenic α-synuclein mouse (an accepted model of synucleinopathies). Two trials are shown, the first (FIG. 2A) at higher doses of LNK-754-TS: 45 mg/kg and 9 mg/kg. […] The second trial (FIG. 2B) explores the low dose range for efficacy in the α-synuclein models. Here, doses start as low as 0.9 mg/kg, and extend through 9 mg/kg, all below the efficacious dose range in the mouse oncology model.
After dosing with LNK-754-TS for three months (twice daily at 0.09 mg/kg or 0.9 mg/kg), α-synuclein accumulation in the brain was analyzed by immunohistochemical (human specific α-synuclein immunoreactivity) and biochemical (α-synuclein ELISA) means. […]

isolated islet cells = assay: Insulin secretion assay, isolated islet cells; type: cell-based; conditions: for increase in insulin stimulation: 10 nM, high glucose conditions (15 mM)
Protocol: One example of such an assay is as follows: prior to glucose-induced insulin secretion, cells were cultured for two hours in RPMI containing 3 mM glucose without serum. Cells were then washed and preincubated for 30 min in modified Krebs-Ringer bicarbonate buffer (KRB) containing (in mM): 119 NaCl, 4.6 KCl, 5 NaHCO3, 2 CaCl2, 1 MgSO4, 0.15 Na2HPO4, 0.4 KH2PO4, 20 HEPES, 2 glucose, 0.05% BSA, pH 7.4. This was followed by 30 min incubation in media containing either 3 mM glucose (to simulate low glucose conditions) or 15 mM glucose (to simulate high glucose conditions). Media are treated with varying concentrations of compound (1 nM and 10 nM). Media was collected and stored at −20° C. for insulin measurement. Insulin was measured by ELISA.
In both graphs, insulin is measured in (pictogram/ml). […] The amount of insulin secretion stimulated is dependent on the concentration of compound, incubation time, and cell-type. […] This distinguishes the effect of LNK-754 from sulfonyl urea compounds, the current standard oral anti-diabetic drug which increases insulin secretion under all conditions (not desired).

HDJ2 = assay: Inhibition of HDJ2 farnesylation in SH-SY5Y cells; type: cell-based, human; conditions: continuous exposure over long periods
[1] = test system: 3T3H-ras (61 L) xenograft; conditions: cited from earlier work
[2] = 9 mg/kg PO BID 3 months, first trial (FIG. 2A)
[3] = 45 mg/kg PO BID 3 months (FIG. 2A)
[4] = α-synuclein transgenic mice vs vehicle
[5] = 0.09 or 0.9 mg/kg twice daily, three months

Row | SMILES | number of α-synuclein positive neurons (human α-synuclein; 0.9 mg/kg, second trial (FIG. 2B)) | number of α-synuclein positive neurons (human α-synuclein; [2]) | number of α-synuclein positive neurons (human α-synuclein; [3]) | levels of α-synuclein in the hippocampus (human α-synuclein; [4]) | α-synuclein inclusions (human α-synuclein; [4]) | increase in insulin stimulation (isolated islet cells; 2.5 days of incubation) | increase in insulin stimulation (isolated islet cells; 3 days of incubation) | insulin secretion under basal glucose conditions (isolated islet cells; basal glucose (3 nM)) | α-synuclein accumulation in brain (immunoreactivity and ELISA) (human α-synuclein; 0.09 mg/kg or 0.9 mg/kg twice daily, three months, cortex and hippocampus) | cortical α-synuclein immunoreactivity (human α-synuclein; 2 mg/kg once every 72 hours, three months, vs baseline and vehicle) | number of α-synuclein IR cells in hippocampus (human α-synuclein; 9 mg/kg PO BID 3 months, second lower dose trial (FIG. 2B)) | astrocytosis (GFAP staining) (human α-synuclein; [5]) | drug-dependent toxicity (human α-synuclein; [5]) | neuronal loss (NeuN staining and brain volume) (human α-synuclein; [5]) | synaptic damage (synaptophysin staining) (human α-synuclein; [5]) | reduction of α-synuclein immunoreactivity, hippocampal slices (human α-synuclein; three-month dosing trial (FIG. 9c)) | IC50 (HDJ2) | efficacy against tumor growth ([1]; 25 mg/kg, lowest dose tested) | dose required for suppression of tumor growth ([1]; 10 days BID, 3T3H-ras (61 L) xenograft athymic mouse)
1 | C#Cc1cccc(-c2cc(=O)n(C)c3ccc([C@](O)(c4ccc(Cl)cc4)c4cncn4C)cc23)c1 [LNK-754, (R)-6-[(4-chlorophenyl)-hydroxyl-(1-methyl-1-H-imidazol-5-yl)-methyl]-4-(3-ethynylphenyl)-1-methyl-2-(1H)-quinonlinone] | significantly lowered | found to significantly lower | did not significantly lower; also recorded: not found to significantly lower | decrease levels of α-synuclein | fewer α-synuclein inclusions | ~75% | ~55% | not under basal glucose conditions; also recorded: does not affect basal insulin secretion | – | – | – | – | – | – | – | – | – | – | –
2 | C#Cc1cccc(-c2cc(=O)n(C)c3ccc([C@](O)(c4ccc(Cl)cc4)c4cncn4C)cc23)c1 [LNK-754-TS, (R)-6-[(4-chlorophenyl)-hydroxyl-(1-methyl-1-H-imidazol-5-yl)-methyl]-4-(3-ethynylphenyl)-1-methyl-2-(1H)-quinonlinone (2S, 3S)-dihydroxybutanedioate] | – | significant reduction | not significantly effective | – | – | – | – | – | clearly reduced; also recorded: halts deposition | significantly lower than at the outset of treatment; also recorded: significantly reduces | significance level was not reached | GFAP staining was unchanged | None of the treated animals showed any evidence | no evidence of neuronal loss | synaptophysin staining was unchanged | ca. 50% | 0.01 µM | borderline efficacy | at least 25 mg per kg
